Laboratory results: patent publication US20190053492A1, “SUBSTITUTED PYRIDINE COMPOUNDS AS PESTICIDES” (Bayer CropScience Aktiengesellschaft, priority 2016, published 2019)
Read-outs that look alike come from different tables or passages of the source.

Columns and labels:
[1] = test system: Phaedon cochleariae; assay: Phaedon cochleariae spray test; assay type: in vivo; settings: after 7 days, Chinese cabbage leaf discs
Procedure, shortened: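 Larval kill read at day 7 as percent, where 100% means every larva dead and 0% none; larvae were placed on dried Brassica pekinensis leaf discs previously sprayed with the formulation (acetone/dimethylformamide solvent, alkylaryl polyglycol ether emulsifier, water).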

[2] = test system: Musca domestica; assay: Musca domestica test; assay type: in vivo; settings: after 2 days, adult houseflies
Protocol: Musca domestica Test Solvent: dimethyl sulphoxide To produce a suitable active ingredient formulation, 10 mg of active ingredient are mixed with 0.5 ml of dimethyl sulphoxide, and the concentrate is diluted with water to the desired concentration. Vessels containing a sponge treated with sugar solution and the active ingredient formulation of the desired concentration are populated with 10 adult houseflies (Musca domestica). After 2 days, the kill in % is determined. 100% means that all of the flies have been killed; 0% means that none of the flies have been killed.

[3] = test system: Ctenocephalides felis; assay: Ctenocephalides felis oral test; assay type: in vivo; settings: application rate 100 ppm in citrated cattle blood, after 2 days, adult cat fleas
Procedure, shortened: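 Kill (%) was recorded at 2 days. Compound, dissolved in DMSO and diluted into citrated cattle blood, was offered to roughly 20 unfed adult C. felis through parafilm.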

[4] = test system: Spodoptera frugiperda; assay: Spodoptera frugiperda spray test; assay type: in vivo; settings: after 7 days, maize leaf discs
Procedure, shortened: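 Efficacy in % was scored at 7 days against armyworm caterpillars placed on dried, compound-sprayed Zea mays leaf discs. Compound was dissolved in acetone/dimethylformamide and diluted in water with 1000 ppm alkylaryl polyglycol ether. 100% means all caterpillars were killed.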

[5] = log P by HPLC on reversed-phase column (C 18), EEC Directive 79/831 Annex V.A8; assay type: physicochemical; settings: 55° C.; for chromatographic logP: reversed-phase HPLC column (C 18); for LOGP_HCOOH: log P (HCOOH); for LOGP_NEUTRAL: log P, neutral range
Protocol: Temperature: 55° C. […] Called log P (HCOOH) in the table. […] Called log P (neutral) in the table.

[6] = test system: Lucilia cuprina; assay: Lucilia cuprina test; assay type: in vivo; settings: application rate 100 ppm, after 2 days, L1 larvae
Protocol: Lucilia cuprina Test Solvent: dimethyl sulphoxide To produce a suitable active ingredient formulation, 10 mg of active ingredient are mixed with 0.5 ml of dimethyl sulphoxide, and the concentrate is diluted with water to the desired concentration. About 20 L1 larvae of the Australian sheep blowfly (Lucilia cuprina) are transferred into a test vessel containing minced horsemeat and the active ingredient formulation of the desired concentration. After 2 days, the kill in % is determined. 100% means that all the larvae have been killed; 0% means that no larvae have been killed.

[7] = acidic range at pH 2.7, 0.1% aqueous formic acid and acetonitrile, HPLC on reversed-phase column (C 18)
[8] = HPLC on reversed-phase column (C 18)
[9] = acidic range pH 2.7, 0.1% aqueous formic acid and acetonitrile, reversed-phase column (C 18)

chromatographic logP ([5]; pH 2.7, LC-MS acidic range, pH 2.7, 0.1% formic acid/acetonitrile, read-out: log P (acidic) / log P (HCOOH))	chromatographic logP ([5]; pH 2.7, log P (HCOOH), acidic range at pH 2.7, 0.1% aqueous formic acid and acetonitrile, HPLC on reversed-phase column (C 18), read-out: LOGP_HCOOH)	LOGP_HCOOH [5, 7]	LOGP_NEUTRAL [5, 8]	LOGP_HCOOH [5, 9]	Compound	pest or weed control at 100 g/ha ([1]; Phaedon cochleariae, foliar, 168 h, application rate 100 g/ha, read-out: efficacy (beetle larvae killed))	pest or weed control at 500 g/ha ([1]; Phaedon cochleariae, foliar, 168 h, application rate 500 g/ha, read-out: efficacy (beetle larvae killed))	efficacy (kill in %) ([2]; application rate 100 ppm)	pest or weed control at 100 ppm ([3]; Ctenocephalides felis, po, 48 h, read-out: efficacy (kill in %))	pest or weed control at 100 g/ha ([4]; Spodoptera frugiperda, foliar, 168 h, application rate 100 g/ha, read-out: efficacy (caterpillars killed))	pest or weed control at 500 g/ha ([4]; Spodoptera frugiperda, foliar, 168 h, application rate 500 g/ha, read-out: efficacy (caterpillars killed))	efficacy (kill in %) [6]	efficacy (beetle larvae killed) ([1]; application rate 100 g/ha)	efficacy (beetle larvae killed) ([1]; application rate 500 g/ha)	efficacy (kill in %) [3]	efficacy (caterpillars killed) ([4]; application rate 100 g/ha)	efficacy (caterpillars killed) ([4]; application rate 500 g/ha)	efficacy (kill in %) ([2]; application rate 20 ppm)
3.73	3.68				N#Cc1ccc(CNC(=O)c2cc(-c3ccc(C(F)(F)F)s3)cc(NC(=O)C3CC3)n2)cc1 [Example I-160, N-(4-Cyanobenzyl)-6-[(cyclopropylcarbonyl)amino]-4-[5-(trifluoromethyl)-2-thienyl]pyridine-2-carboxamide]	100%	100%	80%	100%	100%	100%	100%						
		4.14	4.05		N#Cc1ccc(CNC(=O)c2cc(-c3cc(F)c(OC(F)(F)F)c(F)c3)cc(NC(=O)C3CC3)n2)cc1 [Example I-152]			90%				90%	100%	100%	100%	100%	100%	
		3.46	3.40		CC(C#N)NC(=O)c1cc(-c2ccc(OC(F)(F)F)cc2)cc(NC(=O)C2CC2)n1 (centres unmarked) [Example I-115]			80%				90%	100%	100%	100%	100%	100%	
			4.21	4.35	CC(C)C(=O)Nc1cc(-c2ccc(OC(F)(F)F)cc2)cc(C(=O)NCc2cc(F)c(C#N)c(F)c2)n1 [Example I-073]			80%				100%			100%	83%	100%	
		4.37	4.30		O=C(NCc1ccc([N+](=O)[O-])cc1)c1cc(-c2ccc(C(F)(F)C(F)(F)F)cc2)cc(NC(=O)C2CC2)n1 [Example I-196]			80%				100%	100%	100%	100%	100%	100%	
			3.80	3.86	Cn1nccc1-c1ccc(CNC(=O)c2cc(-c3ccc(OC(F)(F)F)cc3)cc(NC(=O)C3CC3)n2)cc1 [Example I-107]			90%				100%	100%	100%			100%	
			3.79	3.87	N#Cc1ccc(CNC(=O)c2cc(-c3ccc(C(F)(F)F)cc3)cc(NC(=O)C3CC3)n2)cc1F [Example I-026]			100%				100%	100%	100%	100%	100%	100%	
			3.39	3.51	O=C(NC1CC1)c1cc(-c2ccc(OC(F)(F)F)cc2)cc(NC(=O)C2CC2)n1 [Example I-089]			100%				95%	100%	100%	100%	100%	100%	
			3.90	4.05	N#Cc1cc(F)c(CNC(=O)c2cc(-c3ccc(C(F)(F)F)cc3)cc(NC(=O)C3CC3)n2)cc1F [Example I-074]			100%				100%	100%	100%	100%	100%	100%	
			3.79	3.90	N#Cc1ccc(CNC(=O)c2cc(-c3ccc(C(F)(F)F)cc3)cc(NC(=O)C3CC3)n2)c(F)c1 [Example I-077]			80%				100%	83%	100%	100%	100%	100%	
		3.76	3.61		N#Cc1ccc(CNC(=O)c2cc(-c3ccc4c(c3)OC(F)(F)O4)cc(NC(=O)C3CC3)n2)cc1 [Example I-154]			100%				100%	100%	100%	100%	83%	100%	
		4.23			O=C(NC1(C2CC2)CC1)c1cc(-c2ccc(OC(F)(F)F)cc2)cc(NC(=O)C2CC2)n1 [Example I-184]							100%	100%	100%	100%		100%	100%
		4.08	3.93		N#Cc1ccc(C2(NC(=O)c3cc(-c4ccc(OC(F)(F)F)cc4)cc(NC(=O)C4CC4)n3)CC2)cc1 [Example I-159]			80%				90%			100%	100%	100%	
		3.46	3.40		N#Cc1ccc(CNC(=O)c2cc(-c3cc(F)c(OC(F)F)c(F)c3)cc(NC(=O)C3CC3)n2)cc1 [Example I-155]			100%				100%		83%	100%	100%	100%	
			3.94	4.01	CC(NC(=O)c1cc(-c2ccc(C(F)(F)F)cc2)cc(NC(=O)C2CC2)n1)c1ccc(C#N)cc1 (centres unmarked) [Example I-040]			90%				100%	100%	100%	98%	83%	100%	
		4.14	4.02		N#Cc1ccc(CNC(=O)c2cc(-c3ccc(OC(F)(F)F)cc3)cc(NC(=O)C3CC(F)(F)C3)n2)cc1 [Example I-213]							100%	100%	100%	100%	100%		
			4.11	4.21	Cc1cc(-c2cc(NC(=O)C3CC3)nc(C(=O)NCc3ccc(C#N)cc3)c2)ccc1OC(F)(F)F [Example I-098]							100%	100%	100%	100%	100%	100%	
			4.01	4.19	N#Cc1ccc(CNC(=O)c2cc(-c3ccc(SC(F)(F)F)cc3)cc(NC(=O)C3CC3)n2)cc1 [Example I-052]							100%	100%	100%	100%	100%	100%	
